Reference: US6337333B1, “Method of treating autoimmune disease with fludarabine-5′-monophosphate” (priority 1992, dated 2002)

Assays:
[1] = test system: CD20 positive B lymphocytes; conditions: 48 hr culture with and without PWM, dose range 0.1-5.0 μg/ml, FIG. 3
Description: In FIG. 3, freshly isolated PBMC enriched for CD20 positive B lymphocytes (50% CD19, 45% CD20, 10% CD20/CD5 and 30% CD3/CD5) were cultured over 48 hr with various concentrations of FLP with and without PWM (5 μg/ml). The cells were washed once in C-BSS, and resuspended in 0.5 ml C-BCC with 5 μl of PI. Percent viable CD20 positive cells were determined by analysis on a FACScan using the LYSIS II software. Results are expressed as percent of total gated viable cells.
For viability determination of unfixed samples, 5 μl of a 500 mg/ml stock—solution of propidium iodide (PI) was added to the samples (0.5 ml)—immediately before acquisition.
A dose range of drug between 0.1-5.0 μg/ml was performed on PBMC enriched for B lymphocytes cultured for 48 hr with and without the mitogen PWM (FIG. 3). At the end of the culture period, the cells were washed, stained, and analyzed by flowcytometry for viable CD20 positive B lymphocytes.

B cell subtypes = conditions: 0.1-1.0 μg/ml for 48 hr, then 5 to 10 days SAC/rIL-2; data not shown
Description: B lymphocytes are incubated with drug (0.1-1.0 μg/ml) for 48 hr, followed by 5 to 10 days culture with SAC/rIL-2. The supernatant is then assayed at 5 and 10 days for IgM, IgG, and IgM-RF. Analyze the cells by flowcytometry at day 5 for CD20, CD20/CD5, CD5/sIgM, CD5/IgG, CD20/5/sIgM, and CD20/5 sIgG.

[2] = test system: collagen-induced arthritis; conditions: 1 and 10 mg/kg/day injected days 0-10 or days 10-20
Description: The study involves two treatment schedules (47). In Schedule I, FLP is injected on a daily basis on days 0-10 at doses of 1 and 10 mg/kg/day. In Schedule II, FLP is injected at days 10-20 at 1 and 10 mg/kg/day. […] Clinical, histological, EIA, and flowcytometry are employed to follow the progress of the disease.

B lymphocytes = conditions: SAC + rIL-2, drug present 0-72 hr, 72-144 hr or continuously; results not shown
Description: The B lymphocytes are cultured with SAC +rIL-2 under the following conditions:
1. 0 to 72 hr + drug (0.1-0.5 […]), wash, continue culture for additional 72 hr
2. 0 to 72 hr, wash, add drug for additional 72 hr culture
3. No drug for 6 days (wash at 3 days)
4. Drug in continuous culture for 6 days
At the end of the culture period, the supernatants are assayed for IgM, IgG, and IgM-RF.

T lymphocytes = assay: T lymphocyte proliferative response to mitogen after 18 hr drug pretreatment (3H-thymidine); format: cell-based, human; conditions: 18 hr pretreatment; for % Suppression: T lymphocytes
Description: In FIG. 1, freshly isolated PBMC were enriched for T and B lymphocytes using Nylon Wool (see Materials and Methods, Example A). The enriched lymphocyte subpopulations were then incubated for 18 hrs at 37° C. with various concentrations of drug. At the end of the pretreatment period, the cell samples were washed, adjusted to 2×10^5 viable cells/ml, and cultured at 1×10^4/well in flat (B cells) or round (T cells) bottomed 96 well microtiter plates in […]. The T cells were incubated for 3 days with PHA-P ([…]) or Con A (5 μg/ml) and the B cells were cultured for 6 days with either PWM (2 μg/ml) or SAC ({fraction (1/60,000)}). 1 μCi of ^3H-thymidine was added per well during the last 18 hr of culture. The wells were then harvested onto glass fiber filters, and counted in 7 ml of Cytoscint (ICN) on the LKB 1219 Rackbeta scintillation counter. The results are expressed as the mean cpm of triplicate wells.
Peripheral blood mononuclear cells obtained from normal donors as packed leukocyte preparations were enriched for T and B lymphocytes and pretreated with drug for 18 hrs prior to mitogen stimulation.
Peripheral blood mononuclear cells enriched for either T or B lymphocytes were incubated for 18 hrs in complete S-10 medium at 37° C. in 12×75 mm culture tubes at 5×10^5 cells/ml. The cells were then washed in S-10 and cultured in triplicate for either 3 (T lymphocytes) or 6 (B lymphocytes) days at 2.5×10^4/well in round bottom 96-well microtiter plates in S-10 medium at 37° C. and a 5% CO2 humidified atmosphere. The wells were pulsed with 1 μCi 3H-thymidine for the last 18 hr of culture, harvested onto glass fiber filters, and counted with 7 ml Cytoscint with a LKB Rackbeta scintillation counter. The results are reported as “percent Suppression”:
% Suppression={1−(mean cpm exp./mean cpm stim control)}×100

[3] = B-CLL patients; cited from earlier work
[4] = test system: human T-lymphoblastoid cell lines; conditions: cited from earlier work

Row | SMILES | concentration at which effect on viable CD20 positive B lymphocytes becomes evident [1] [µg/mL] | sensitivity of B cell subtypes to drug (B cell subtypes) | activity in arthritis model [2] | part of the life cycle on which the drug has its primary effect (B lymphocytes) | suppression of T lymphocyte's ability to respond to mitogen (T lymphocytes; FIG. 1A) | % Suppression (T lymphocytes; CON A (5 μg/ml), BC5, 5 μg/ml of drug) [%] | % Suppression (T lymphocytes; CON A (5 μg/ml), BC6, 1 μg/ml of drug) [%] | % Suppression (T lymphocytes; CON A (5 μg/ml), BC6, 5 μg/ml of drug) [%] | % Suppression (T lymphocytes; CON A (5 μg/ml), BC7, 1 μg/ml of drug) [%] | % Suppression (T lymphocytes; CON A (5 μg/ml), BC7, 5 μg/ml of drug) [%] | % Suppression (T lymphocytes; CON A (5 μg/ml), leukocyte preparation BC5, 1 μg/ml of drug) [%] | % Suppression (T lymphocytes; PHA-P (5 μg/ml), BC5, 1 μg/ml of drug) [%] | % Suppression (T lymphocytes; PHA-P (5 μg/ml), BC5, 5 μg/ml of drug) [%] | % Suppression (T lymphocytes; PHA-P (5 μg/ml), BC6, 1 μg/ml of drug) [%] | % Suppression (T lymphocytes; PHA-P (5 μg/ml), BC6, 5 μg/ml of drug) [%] | % Suppression (T lymphocytes; PHA-P (5 μg/ml), BC7, 1 μg/ml of drug) [%] | % Suppression (T lymphocytes; PHA-P (5 μg/ml), BC7, 5 μg/ml of drug) [%] | peak concentration of F-ara-ATP in the lymphocytes relative to the serum peak [3] [fold] | levels giving growth inhibition [4]
1 | Nc1nc(F)nc2c1ncn2[C@@H]1O[C@H](COP(=O)(O)O)[C@@H](O)[C@@H]1O [FLP, fludarabine-5′-monophosphate] | 0.5 | CD5 positive B cells are found to be more sensitive | active following onset of disease | early stage B lymphocyte proliferation/differentiation | suppress | 29 | 4 | 29 | 16 | 40 | 6 | 24 | 32 | 0 | 15 | 25 | 50 | 10 | –
2 | Nc1nc(Cl)nc2c1ncn2[C@H]1C[C@H](O)[C@@H](CO)O1 [2CDA, 2-chlorodeoxyadenosine] | – | – | – | – | – | – | – | – | – | – | – | – | – | – | – | – | – | – | nanomolar levels
